Article PMC6795057, “Plumbagin Prevents Secretory Diarrhea by Inhibiting CaCC and CFTR Channel Activities” (Frontiers in Pharmacology, 2019)

Tests used:
[1] = target: CFTR (cystic fibrosis transmembrane conductance regulator) (Homo sapiens, UniProt P13569); experiment: short-circuit current in HT-29 cells, FSK-stimulated; also inhibits current with genistein (direct activator, IC50 […]); format: cell-based
[2] = target: T1, TMEM16A (transmembrane protein 16A) (Homo sapiens, UniProt Q5XXA6); experiment: YFP iodide-influx fluorescence quenching in TMEM16A-expressing FRT cells; Eact-stimulated short-circuit current; format: cell-based
T1 construct: gene ANO1
T1 sequence (Q5XXA6 1-986): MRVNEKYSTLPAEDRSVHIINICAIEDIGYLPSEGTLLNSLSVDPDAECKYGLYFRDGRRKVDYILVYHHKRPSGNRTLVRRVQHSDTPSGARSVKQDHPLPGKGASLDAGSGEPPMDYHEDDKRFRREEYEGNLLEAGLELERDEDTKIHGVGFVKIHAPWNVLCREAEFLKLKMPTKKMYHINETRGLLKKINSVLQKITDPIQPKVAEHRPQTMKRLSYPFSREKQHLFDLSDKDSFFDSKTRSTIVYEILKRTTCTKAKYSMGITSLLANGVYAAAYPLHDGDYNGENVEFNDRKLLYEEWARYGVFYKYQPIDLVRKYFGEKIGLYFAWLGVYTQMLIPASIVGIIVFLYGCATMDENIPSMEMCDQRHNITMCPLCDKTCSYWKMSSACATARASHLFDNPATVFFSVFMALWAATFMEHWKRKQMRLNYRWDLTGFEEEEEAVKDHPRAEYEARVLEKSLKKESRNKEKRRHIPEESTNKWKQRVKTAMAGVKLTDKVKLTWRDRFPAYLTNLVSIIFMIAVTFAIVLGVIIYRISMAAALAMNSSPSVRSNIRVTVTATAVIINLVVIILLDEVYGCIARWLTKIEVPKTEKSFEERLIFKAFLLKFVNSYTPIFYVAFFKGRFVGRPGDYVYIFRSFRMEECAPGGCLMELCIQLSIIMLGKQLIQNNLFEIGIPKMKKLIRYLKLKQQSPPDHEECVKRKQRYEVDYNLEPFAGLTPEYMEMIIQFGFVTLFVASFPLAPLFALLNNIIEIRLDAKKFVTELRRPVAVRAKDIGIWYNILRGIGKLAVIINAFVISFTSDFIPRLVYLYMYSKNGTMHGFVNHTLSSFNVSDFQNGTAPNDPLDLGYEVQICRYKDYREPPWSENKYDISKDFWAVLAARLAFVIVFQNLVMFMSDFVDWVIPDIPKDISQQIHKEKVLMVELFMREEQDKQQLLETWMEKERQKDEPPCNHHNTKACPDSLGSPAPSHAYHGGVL

Chain of CFTR (cystic fibrosis transmembrane conductance regulator) (P13569 whole entry): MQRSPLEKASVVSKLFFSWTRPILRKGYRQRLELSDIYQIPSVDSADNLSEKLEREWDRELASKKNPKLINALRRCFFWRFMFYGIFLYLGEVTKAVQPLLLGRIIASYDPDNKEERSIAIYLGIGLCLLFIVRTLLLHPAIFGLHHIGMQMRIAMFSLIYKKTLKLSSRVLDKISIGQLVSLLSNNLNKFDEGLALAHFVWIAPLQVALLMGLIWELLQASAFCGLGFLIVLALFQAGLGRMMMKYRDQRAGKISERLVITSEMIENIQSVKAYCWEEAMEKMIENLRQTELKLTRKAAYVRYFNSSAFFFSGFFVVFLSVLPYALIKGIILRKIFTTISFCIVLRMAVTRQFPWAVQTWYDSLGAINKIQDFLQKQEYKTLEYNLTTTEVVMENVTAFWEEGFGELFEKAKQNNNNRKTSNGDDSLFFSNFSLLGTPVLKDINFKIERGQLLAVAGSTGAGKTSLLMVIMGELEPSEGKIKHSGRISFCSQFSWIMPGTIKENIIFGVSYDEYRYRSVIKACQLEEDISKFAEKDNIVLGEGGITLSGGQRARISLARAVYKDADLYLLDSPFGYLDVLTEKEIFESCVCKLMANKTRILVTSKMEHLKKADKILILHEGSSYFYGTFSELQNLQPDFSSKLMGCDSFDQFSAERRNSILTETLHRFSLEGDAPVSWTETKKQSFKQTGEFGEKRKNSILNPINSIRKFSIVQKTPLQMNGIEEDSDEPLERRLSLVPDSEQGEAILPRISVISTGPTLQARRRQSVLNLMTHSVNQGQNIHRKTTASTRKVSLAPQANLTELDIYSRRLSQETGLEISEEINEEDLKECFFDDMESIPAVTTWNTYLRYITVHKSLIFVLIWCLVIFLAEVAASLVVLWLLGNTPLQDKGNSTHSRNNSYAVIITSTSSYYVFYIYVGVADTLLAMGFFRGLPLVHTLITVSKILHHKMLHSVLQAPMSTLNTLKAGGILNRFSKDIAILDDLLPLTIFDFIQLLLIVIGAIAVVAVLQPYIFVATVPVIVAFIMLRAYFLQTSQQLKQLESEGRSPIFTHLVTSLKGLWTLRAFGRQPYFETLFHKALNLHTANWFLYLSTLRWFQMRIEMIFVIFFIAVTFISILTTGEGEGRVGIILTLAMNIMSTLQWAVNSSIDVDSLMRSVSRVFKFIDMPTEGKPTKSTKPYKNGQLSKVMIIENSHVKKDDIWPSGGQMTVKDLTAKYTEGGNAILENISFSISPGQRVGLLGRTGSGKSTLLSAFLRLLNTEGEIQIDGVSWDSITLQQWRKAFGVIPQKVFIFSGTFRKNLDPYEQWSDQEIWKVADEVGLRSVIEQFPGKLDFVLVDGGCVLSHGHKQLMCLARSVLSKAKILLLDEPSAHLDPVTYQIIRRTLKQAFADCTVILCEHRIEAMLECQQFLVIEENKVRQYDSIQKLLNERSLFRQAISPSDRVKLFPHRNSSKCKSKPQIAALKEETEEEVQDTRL

## CC1=CC(=O)c2c(O)cccc2C1=O [plumbagin]
[1]
  IC50: 3.9 µM
[2]
  IC50: ~12.5 µM
